The numbers were not newly measured in patent US20220257506A1, “Alkaline Drink” (WET HOLDINGS (GLOBAL) LIMITED, priority 2019, published 2022), which cites them from elsewhere.

The conditions of series [1]: acute dosing, murine stroke models.
The conditions of series [2]: acute administration, humans.
Series [3] deals with testicular endocrine function. The settings on record: dogs, very high doses.
The subject of series [4] is adrenal and gonadal steroidogenesis. The settings on record: humans, up to 80 mg/day, basal conditions.
Test in series [5]: not given
The source holds these as a separate data set.

For series [6] the following is noted: humans.

For the compound `CCCCCc1cc(O)c2c(c1)OC(C)(C)[C@@H]1CCC(C)=C[C@@H]21` [THC, (−)-trans-Δ^9-tetrahydrocannabinol], the “BP and heart rate” value (acute dosing, anaesthetised animals, conscious animals and animal models of stress or hypertension) was “reduced BP and heart rate”. For the same compound, the “BF in large arteries” value (chronic dosing, anaesthetised animals) was “increased BF in large arteries”. The BP entry (chronic dosing, models of stress or hypertension) is reported as “reduced BP”. The “cerebral BF” value in series [1] is listed as “increased cerebral BF”. For the same compound, the HR entry in series [2] is “increased HR”.
Take `CC[C@H](C)C(=O)O[C@H]1C[C@@H](C)C=C2C=C[C@H](C)[C@H](CC[C@@H]3C[C@@H](O)CC(=O)O3)[C@H]21` [lovastatin]: the testicular endocrine function entry in series [3] is given as “reduction in testicular endocrine function”. The “effect on adrenal and gonadal steroidogenesis” value in series [4] was “no effect on adrenal and gonadal steroidogenesis”.
As to `C=C(C)[C@@H]1CCC(C)=C[C@H]1c1c(O)cc(CCCCC)cc1O` [CBD, Cannabidiol], the “decrease of blood pressure” value in series [5] (600 mg single dose, nine healthy male volunteers) is on record as “about 6 mm Hg”. Further, the “resting blood pressure and blood pressure response to stress” value in series [5] (single dose, particularly cold stress, post-test periods) was “reduces resting blood pressure and the blood pressure response to stress”. Also, the “abuse or dependence potential” value in series [6] is reported as “no effects indicative of any abuse or dependence potential”.
